Values quoted from earlier work, collected in patent US20070231316A1, “Treatment of Cognitive Dysfunction in Lupus” (priority 2003, published 2007).

Legend:
[1] = NP-SLE patients, after treatment
[2] = in vivo

Compound | GFAP level in CSF [1] | NFL level in CSF [1] | effect on blood-brain barrier [2]
O=P1(N(CCCl)CCCl)NCCCO1 (stereo not drawn) [cyclophosphamide] | marked decline | marked decline | –
lipopolysaccharide [LPS] | – | – | temporary opening of the blood-brain barrier
